Assay results reported in BigSolDB 2.1.

O=C(O)c1cccnc1Cl
solubility (mole fraction)
Details | 273.15 K | 278.15 K | 283.15 K | 288.15 K | 293.15 K | 298.15 K | 303.15 K | 308.15 K | 313.15 K
in 1,4-dioxane | – | – | – | 0.0088 | 0.0103 | 0.012 | 0.0136 | 0.0155 | 0.0176
in DMF | 0.124 | 0.149 | 0.175 | 0.2 | 0.228 | 0.26 | 0.291 | 0.327 | 0.367
in NMP | 0.206 | 0.235 | 0.265 | 0.295 | 0.328 | 0.36 | 0.397 | 0.437 | 0.478
in acetone | 0.00893 | 0.0103 | 0.0118 | 0.0133 | 0.0149 | 0.0166 | 0.0184 | 0.0205 | 0.0226
in acetonitrile | 0.00105 | 0.00137 | 0.00174 | 0.00214 | 0.00263 | 0.00324 | 0.00399 | – | –
in ethanol | 0.00286 | 0.00363 | 0.00461 | 0.00563 | 0.00676 | 0.00804 | 0.00953 | 0.0112 | 0.0129
in ethyl acetate | 0.0138 | 0.0163 | 0.0189 | 0.0218 | 0.0246 | 0.0276 | 0.0308 | 0.0344 | 0.0382
in isopropanol | 0.00368 | 0.00464 | 0.00574 | 0.00697 | 0.0083 | 0.00972 | 0.0113 | 0.013 | 0.0147
in methanol | 0.00227 | 0.00283 | 0.00347 | 0.00422 | 0.00505 | 0.00598 | 0.00696 | 0.00806 | 0.00927
in n-propanol | 0.00446 | 0.00546 | 0.00667 | 0.00792 | 0.00933 | 0.011 | 0.0125 | 0.0144 | 0.0162
in water | 9.1e-05 | 0.000104 | 0.00012 | 0.000136 | 0.000153 | 0.000171 | 0.000191 | 0.000216 | 0.000242
